Test results published in ChEMBL document CHEMBL5096221, “Discovery of a Highly Potent and Orally Bioavailable STAT3 Dual Phosphorylation Inhibitor for Pancreatic Cancer Treatment” (J Med Chem, 2022).
Blank lines part the entries; values can stand above or below the compound they belong to.

Legend:
[1] = Clearance at steady state in BALB/c mouse at 1 mg/kg,iv measured upto 24 hrs by LC-MS/MS analysis; type: ADME, organism-based; conditions: in vivo, iv, 1 mg/kg, 24 h
[2] = target: Signal transducer and activator of transcription 3 (Homo sapiens, UniProt P40763); experiment: Inhibition of STAT3 in human HEK293T cells assessed as inhibition of IL-6 stimulated STAT3 phosphorylation by dual-luciferase reporter assay; type: cell-based
[3] = AUC (0-24hrs) in BALB/c mouse at 1 mg/kg,iv measured upto 24 hrs by LC-MS/MS analysis; type: ADME, organism-based; design: time < 24 hrs, dose 1 mg/kg, route iv; conditions: in vivo
[4] = target: Cytochrome P450 2D6 (Homo sapiens, UniProt P10635); experiment: Inhibition of CYP2D6 in human liver microsomes using dextromethorphan as substrate incubated for 60 mins in presence of NADPH by HPLC analysis; type: ADME, Microsome
[5] = AUC (0-infinity) in BALB/c mouse at 10 mg/kg,po measured upto 24 hrs by LC-MS/MS analysis; type: ADME, organism-based; design: time < 24 hrs, dose 10 mg/kg, route po; conditions: in vivo
[6] = Microsomal stability in dog liver microsomes assessed as intrinsic clearance incubated upto 40 mins in presence of NADPH by LC-MS/MS analysis; type: ADME, Canis lupus familiaris, Microsome; conditions: read-out: CLH
[7] = MRT (0 to last) in BALB/c mouse at 10 mg/kg,po measured upto 24 hrs by LC-MS/MS analysis; type: ADME, organism-based; conditions: in vivo
[8] = Inhibition of ATP production in human BXPC-3 cells incubated for 20 to 24 hrs by ATP assay kit method; type: functional, cell-based
[9] = Microsomal stability in human liver microsomes assessed as half life incubated upto 40 mins in presence of NADPH by LC-MS/MS analysis; type: ADME, Microsome
[10] = target: T1, Cytochrome P450 1A2 (Homo sapiens, UniProt P05177); experiment: Inhibition of CYP1A2 in human liver microsomes using phenacetin as substrate incubated for 30 mins in presence of NADPH by HPLC analysis; type: ADME, Microsome
T1 sequence (P05177 whole entry): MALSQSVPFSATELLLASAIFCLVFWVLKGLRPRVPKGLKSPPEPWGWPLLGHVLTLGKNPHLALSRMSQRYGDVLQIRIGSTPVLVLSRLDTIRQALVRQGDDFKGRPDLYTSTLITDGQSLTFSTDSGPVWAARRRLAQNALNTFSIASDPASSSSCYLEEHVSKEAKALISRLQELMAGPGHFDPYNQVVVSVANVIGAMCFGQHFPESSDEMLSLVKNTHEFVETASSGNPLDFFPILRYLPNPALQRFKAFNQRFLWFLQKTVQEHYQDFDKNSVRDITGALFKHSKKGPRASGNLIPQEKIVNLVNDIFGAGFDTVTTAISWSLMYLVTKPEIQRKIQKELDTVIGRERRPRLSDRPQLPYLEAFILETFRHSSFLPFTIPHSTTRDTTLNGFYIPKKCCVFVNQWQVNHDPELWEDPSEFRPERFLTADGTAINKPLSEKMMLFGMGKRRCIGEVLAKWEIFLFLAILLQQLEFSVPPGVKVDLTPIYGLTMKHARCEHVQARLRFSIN

[11] = Cmax in BALB/c mouse at 1 mg/kg,iv measured upto 24 hrs by LC-MS/MS analysis; type: ADME, organism-based; design: dose 1 mg/kg, time < 24 hrs, route iv; conditions: in vivo
[12] = target: Cytochrome P450 2C9 (Homo sapiens, UniProt P11712); experiment: Inhibition of CYP2C9 in human liver microsomes using tolbutamide as substrate incubated for 60 mins in presence of NADPH by HPLC analysis; type: ADME, Microsome
[13] = MRT (0 to last) in BALB/c mouse at 1 mg/kg,iv measured upto 24 hrs by LC-MS/MS analysis; type: ADME, organism-based; conditions: in vivo, iv, 1 mg/kg, 24 h
[14] = Half life in BALB/c mouse at 1 mg/kg,iv measured upto 24 hrs by LC-MS/MS analysis; type: ADME, organism-based; conditions: in vivo
[15] = target: Cytochrome P450 3A4 (Homo sapiens, UniProt P08684); experiment: Inhibition of CYP3A4 in human liver microsomes using testosterone as substrate in presence of NADPH by HPLC analysis; type: ADME, Microsome
[16] = Microsomal stability in rat liver microsomes assessed as half life incubated upto 40 mins in presence of NADPH by LC-MS/MS analysis; type: ADME, Microsome
[17] = Microsomal stability in rat liver microsomes assessed as intrinsic clearance incubated upto 40 mins in presence of NADPH by LC-MS/MS analysis; type: ADME, Microsome; conditions: read-out: CLH
[18] = AUC (0-infinity) in BALB/c mouse at 1 mg/kg,iv measured upto 24 hrs by LC-MS/MS analysis; type: ADME, organism-based; design: dose 1 mg/kg, time < 24 hrs, route iv; conditions: in vivo
[19] = Microsomal stability in dog liver microsomes assessed as half life incubated upto 40 mins in presence of NADPH by LC-MS/MS analysis; type: ADME, Canis lupus familiaris, Microsome
[20] = Microsomal stability in human liver microsomes assessed as compound remaining incubated for 60 mins in presence of NADPH by LC-MS/MS analysis; type: ADME, Microsome; conditions: read-out: Stability
[21] = Oral bioavailability in BALB/c mouse at 10 mg/kg,po measured upto 24 hrs by LC-MS/MS analysis; type: ADME, organism-based; conditions: in vivo
[22] = Cmax in BALB/c mouse at 10 mg/kg,po measured upto 24 hrs by LC-MS/MS analysis; type: ADME, organism-based; design: time < 24 hrs, dose 10 mg/kg, route po; conditions: in vivo
[23] = target: Cytochrome P450 2C19 (Homo sapiens, UniProt P33261); experiment: Inhibition of CYP2C19 in human liver microsomes; type: ADME, Microsome
[24] = Microsomal stability in dog liver microsomes assessed as compound remaining incubated for 60 mins in presence of NADPH by LC-MS/MS analysis; type: ADME, Canis lupus familiaris, Microsome; conditions: read-out: Stability
[25] = tested on: Capan-2; experiment: Anti-proliferative activity against human Capan-2 cells assessed as cell growth inhibition incubated for 72 hrs by MTS assay; type: functional, cell-based; conditions: Capan-2, 72 h
[26] = Volume of distribution at steady state in BALB/c mouse at 1 mg/kg,iv measured upto 24 hrs by LC-MS/MS analysis; type: ADME, organism-based; conditions: in vivo, iv, 1 mg/kg, 24 h
[27] = Half life in BALB/c mouse at 10 mg/kg,po measured upto 24 hrs by LC-MS/MS analysis; type: ADME, organism-based; conditions: in vivo
[28] = Microsomal stability in human liver microsomes assessed as intrinsic clearance incubated upto 40 mins in presence of NADPH by LC-MS/MS analysis; type: ADME, Microsome; conditions: read-out: CLH
[29] = AUC (0-24hrs) in BALB/c mouse at 10 mg/kg,po measured upto 24 hrs by LC-MS/MS analysis; type: ADME, organism-based; design: dose 10 mg/kg, time < 24 hrs, route po; conditions: in vivo
[30] = tested on: BXPC-3; experiment: Anti-proliferative activity against human BXPC-3 cells assessed as cell growth inhibition incubated for 72 hrs by MTS assay; type: functional, cell-based; conditions: BXPC-3, 72 h
[31] = Microsomal stability in rat liver microsomes assessed as compound remaining incubated for 60 mins in presence of NADPH by LC-MS/MS analysis; type: ADME, Microsome; conditions: read-out: Stability
[32] = Toxicity in BALB/c mouse xenografted with human BXPC-3 cells assessed as effect on lung at 30 mg/kg,po administrated once daily for 8 weeks by H and E staining based microscopic analysis; type: organism-based; conditions: in vivo, 1344 h
[33] = Toxicity in BALB/c mouse xenografted with human BXPC-3 cells assessed as effect on kidney at 30 mg/kg,po administrated once daily for 8 weeks by H and E staining based microscopic analysis; type: organism-based; conditions: in vivo, 1344 h
[34] = Toxicity in BALB/c mouse xenografted with human BXPC-3 cells assessed as effect on heart at 30 mg/kg,po administrated once daily for 8 weeks by H and E staining based microscopic analysis; type: organism-based; conditions: in vivo, 1344 h
[35] = tested on: BXPC-3; experiment: Antitumor activity against human BXPC-3 cells xenografted BALB/c mouse model assessed as tumor growth inhibition at 30 mg/kg,po administrated once daily for 8 weeks; type: functional; conditions: BXPC-3, 1344 h, read-out: TGI
[36] = Toxicity in BALB/c mouse xenografted with human BXPC-3 cells assessed as effect on spleen at 30 mg/kg,po administrated once daily for 8 weeks by H and E staining based microscopic analysis; type: organism-based; conditions: in vivo, 1344 h
[37] = Toxicity in BALB/c mouse xenografted with human BXPC-3 cells assessed as effect on liver at 30 mg/kg,po administrated once daily for 8 weeks by H and E staining based microscopic analysis; type: organism-based; conditions: in vivo, 1344 h
[38] = Toxicity in BALB/c mouse xenografted with human BXPC-3 cells assessed as body weight change at 30 mg/kg,po administrated once daily for 8 weeks; type: organism-based; conditions: in vivo, 1344 h

Sequence of Cytochrome P450 3A4 (P08684 whole entry): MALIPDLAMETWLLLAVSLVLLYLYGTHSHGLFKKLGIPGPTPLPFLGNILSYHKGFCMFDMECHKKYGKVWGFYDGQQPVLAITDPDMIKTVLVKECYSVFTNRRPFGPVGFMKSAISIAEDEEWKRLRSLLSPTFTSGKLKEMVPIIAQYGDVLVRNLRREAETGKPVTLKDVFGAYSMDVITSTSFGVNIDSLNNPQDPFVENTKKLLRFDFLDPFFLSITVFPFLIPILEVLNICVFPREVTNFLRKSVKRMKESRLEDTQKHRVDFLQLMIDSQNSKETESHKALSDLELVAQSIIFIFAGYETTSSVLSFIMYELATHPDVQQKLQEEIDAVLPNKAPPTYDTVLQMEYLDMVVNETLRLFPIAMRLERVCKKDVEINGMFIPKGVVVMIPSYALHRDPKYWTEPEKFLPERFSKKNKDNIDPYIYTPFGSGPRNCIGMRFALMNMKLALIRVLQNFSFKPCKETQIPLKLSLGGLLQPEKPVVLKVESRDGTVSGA
Sequence of Cytochrome P450 2C19 (P33261 whole entry): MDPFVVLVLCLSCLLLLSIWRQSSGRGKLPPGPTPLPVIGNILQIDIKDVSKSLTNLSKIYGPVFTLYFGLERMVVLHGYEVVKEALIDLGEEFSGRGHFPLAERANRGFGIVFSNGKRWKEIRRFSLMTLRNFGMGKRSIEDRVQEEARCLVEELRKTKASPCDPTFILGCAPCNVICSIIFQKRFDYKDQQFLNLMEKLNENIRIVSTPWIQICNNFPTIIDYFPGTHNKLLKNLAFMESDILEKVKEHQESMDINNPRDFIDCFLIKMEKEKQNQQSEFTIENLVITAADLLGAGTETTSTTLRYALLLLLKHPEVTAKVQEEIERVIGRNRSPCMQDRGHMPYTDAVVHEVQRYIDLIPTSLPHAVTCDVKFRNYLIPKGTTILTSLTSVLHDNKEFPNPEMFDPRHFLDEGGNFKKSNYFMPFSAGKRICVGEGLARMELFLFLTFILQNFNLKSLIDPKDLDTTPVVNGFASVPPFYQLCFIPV
Sequence of Signal transducer and activator of transcription 3 (P40763 whole entry): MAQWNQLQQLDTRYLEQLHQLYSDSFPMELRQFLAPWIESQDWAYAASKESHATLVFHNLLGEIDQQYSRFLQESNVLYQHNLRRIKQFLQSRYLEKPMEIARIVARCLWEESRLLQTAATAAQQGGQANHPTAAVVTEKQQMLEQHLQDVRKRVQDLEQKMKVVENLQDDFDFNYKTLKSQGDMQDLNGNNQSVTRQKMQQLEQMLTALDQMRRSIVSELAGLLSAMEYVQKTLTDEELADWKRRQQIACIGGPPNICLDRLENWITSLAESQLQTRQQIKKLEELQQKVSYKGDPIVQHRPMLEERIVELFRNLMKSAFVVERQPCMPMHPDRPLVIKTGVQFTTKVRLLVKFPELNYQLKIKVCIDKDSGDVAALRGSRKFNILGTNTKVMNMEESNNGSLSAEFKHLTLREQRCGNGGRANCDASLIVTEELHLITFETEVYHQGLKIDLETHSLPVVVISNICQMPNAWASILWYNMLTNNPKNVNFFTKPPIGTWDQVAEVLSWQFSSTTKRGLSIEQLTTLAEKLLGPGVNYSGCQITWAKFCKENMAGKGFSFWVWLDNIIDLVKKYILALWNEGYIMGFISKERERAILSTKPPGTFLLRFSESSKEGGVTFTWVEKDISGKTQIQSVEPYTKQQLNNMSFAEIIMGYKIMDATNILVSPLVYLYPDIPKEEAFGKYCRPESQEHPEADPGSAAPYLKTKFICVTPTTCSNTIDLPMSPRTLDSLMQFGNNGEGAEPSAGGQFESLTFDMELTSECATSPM
Sequence of Cytochrome P450 2D6 (P10635 whole entry): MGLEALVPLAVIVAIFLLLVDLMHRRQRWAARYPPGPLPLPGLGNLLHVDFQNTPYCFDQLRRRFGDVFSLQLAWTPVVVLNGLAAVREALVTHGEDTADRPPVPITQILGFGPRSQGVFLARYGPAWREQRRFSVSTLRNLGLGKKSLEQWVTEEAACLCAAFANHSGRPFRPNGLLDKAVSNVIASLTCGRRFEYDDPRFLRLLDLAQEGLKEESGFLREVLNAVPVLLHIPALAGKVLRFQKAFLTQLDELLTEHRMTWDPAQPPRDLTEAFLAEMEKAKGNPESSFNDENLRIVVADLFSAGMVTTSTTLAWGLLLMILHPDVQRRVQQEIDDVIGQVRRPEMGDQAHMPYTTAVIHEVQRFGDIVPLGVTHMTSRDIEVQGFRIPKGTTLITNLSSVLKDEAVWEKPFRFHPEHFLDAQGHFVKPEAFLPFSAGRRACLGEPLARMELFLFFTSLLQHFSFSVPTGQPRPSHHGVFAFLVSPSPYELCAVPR
Sequence of Cytochrome P450 2C9 (P11712 whole entry): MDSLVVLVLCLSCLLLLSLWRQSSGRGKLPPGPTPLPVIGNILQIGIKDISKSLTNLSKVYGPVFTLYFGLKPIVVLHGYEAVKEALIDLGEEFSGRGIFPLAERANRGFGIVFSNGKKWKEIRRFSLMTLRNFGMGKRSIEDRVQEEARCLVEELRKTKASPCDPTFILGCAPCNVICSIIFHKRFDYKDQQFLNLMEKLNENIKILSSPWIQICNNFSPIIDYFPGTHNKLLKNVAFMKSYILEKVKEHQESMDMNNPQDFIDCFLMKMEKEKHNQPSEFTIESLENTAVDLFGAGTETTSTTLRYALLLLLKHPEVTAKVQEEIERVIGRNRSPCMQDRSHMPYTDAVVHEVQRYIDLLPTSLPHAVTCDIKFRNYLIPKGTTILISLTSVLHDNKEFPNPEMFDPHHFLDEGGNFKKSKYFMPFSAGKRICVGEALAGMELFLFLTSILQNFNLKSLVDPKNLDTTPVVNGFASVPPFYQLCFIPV

CL [1]: 1.24 mL/min/kg
IC50 [2]: 5.9 nM
AUC(0-t) at 24 h [3]: 8680 ng·h/mL
IC50 [4]: > 50000 nM
AUC(0-inf) [5]: 12300 ng·h/mL
microsomal CLint [6]: 21.5 µL/min/mg
MRT last at 24 h [7]: 15.6 h
IC50 [8]: 2.4 nM
half-life [9]: 1.22 h
IC50 [10]: > 50000 nM
Cmax [11]: 2910 ng/mL
IC50 [12]: > 50000 nM
MRTlast [13]: 15 h
half-life [14]: 17.7 h
IC50 [15]: > 50000 nM
half-life [16]: 1.24 h
microsomal CLint [17]: 18.6 µL/min/mg
AUC(0-inf) [18]: 13800 ng·h/mL
half-life [19]: 1.07 h
remaining at 1 h [20]: 57.6%
bioavailability [21]: 12.5%
Cmax [22]: 669 ng/mL
IC50 [23]: > 50000 nM
remaining at 1 h [24]: 50.9%
Vdss [26]: 3.7352 L/kg
half-life [27]: 13.9 h
microsomal CLint [28]: 18.9 µL/min/mg
AUC(0-t) at 24 h [29]: 10900 ng·h/mL
IC50 [30]: 1.4 nM
remaining at 1 h [31]: 55.4%
SMILES: Cn1c(C(=O)N2CCN(Cc3ccc(OCC(F)(F)F)cc3)CC2)cc2ccc(Oc3cnc(-c4nc(-c5ccc(F)cc5)no4)cn3)cc21
IC50 [25]: 6.4 nM

IC50 [8]: 1960 nM
IC50 [30]: 5310 nM
SMILES: CC(=O)c1cc2c(o1)C(=O)c1ccccc1C2=O [NAPABUCASIN]
Activity [32]: Non-Toxic
Activity [33]: Non-Toxic
Activity [34]: Non-Toxic
inhibition in vivo at 30 mg/kg [35]: 26.1%
Activity [36]: Non-Toxic
Activity [37]: Non-Toxic
Activity [38]: Non-Toxic
IC50 [25]: 1590 nM
